Test results from patent US9677051B2, “Erythroid production” (The Common Services Agency, priority 2012, dated 2017).
Entries after “also recorded” stand apart in the source; their conditions may differ.

What was measured:
[1] = tested on: human pluripotent stem cells (hPSC); experiment: erythroid differentiation culture of hPSCs, overall cell amplification; type: cell-based; details: for cell amplification, combination of GSK3β inhibitor and IBMX: GSK3 inhibitor combined with IBMX; for quality and quantity of erythrocytic cells produced: GSK3β inhibitor day 0 to day 3, used along with Wnt3a; for replacement of recombinant Wnt3A by GSK3β inhibitor: added during day 0 to day 3 of the differentiation protocol; for potency: concentration of GSK3β inhibitor: early stage of differentiation; for overall amplification of differentiating erythropoietic cultures, side by side comparison: Table 1, addition of GSK3β inhibitors, IBMX or both; for expansion in cell number / yield of differentiated cells: prolonged treatment d0 to d5, iPSC or hESC; for rate of cell amplification in the late stage of the method: SR1 1 μM at day 5, SC1 500 nM at day 14 and 250 nM at day 16
Experimental: (§1) The human pluripotent stem cells (hPSC) are maintained undifferentiated in Stempro medium (Life Technologies) on Cellstart (Life Technologies) and passaged approximately every 7 days, depending on their confluence, using the EZpassage tool (Life Technologies).
(§2) For differentiation, confluent hPSC are cut into squares with the EZpassage tool (Life Technologies) and plated at 500×10^3/well on Ultra low adherence six well plates (Corning) in 3 ml/well of Stemline II (Sigma) to allow them to form embryoid bodies (EBs).
(§3) On day 0 in order to induce differentiation, the following cytokines are added: Bone Morphogenic Protein 4 (BMP4) (10 ng/ml), Vascular Endothelium Growth Factor 165 (VEGF) (10 ng/ml), Wnt3A (and/or Wnt5A) (10 ng/ml), ActivinA (5 ng/ml) and Inhibitor VIII (2 μM). GSK3 Inhibitor VIII is a specific name for the Merck product (361549), it is also called AR-A014418 or N-(4-Methoxybenzyl)-N′-(5-nitro-1,3-thiazol-2-yl)urea
(§4) On day 2 of differentiation (48 hours old EBs), a new set of cytokines is added in 0.5 ml/well of Stemline II; BMP4 (20 ng/ml), VEGF (30 ng/ml), Wnt3A (and/or Wnt5A) (10 ng/ml), ActivinA (5 ng/ml), Inhibitor VIII (2 μM), Fibroblast Growth Factor α (FGFα) (10 ng/ml), Stem Cell Factor (SCF) (20 ng/ml) and β-Estradiol (0.4 ng/ml).
(§5) NB: Given cytokine concentrations are always the final concentrations of freshly added cytokines—e.g. when cells are fed rather than undergoing complete media change, we add 0.5 ml of 6× cytokines to 2.5 ml already in well to give final total volume of 3 ml with 1× cytokines.
On day 3 of differentiation the EBs are washed in PBS then dissociated using 1 ml/well TrypleSelect 10λ for 10 minutes at 37° C. After addition of 10 ml of PBS, cells are centrifuged for 3 minutes at 1200 rpm, the supernatant is discarded and the cells are resuspended in 3 ml fresh Stemline II and replated at 200×10^3/well of a regular six well tissue culture plate with the following cytokines: BMP4 (20 ng/ml), VEGF (30 ng/ml), FGFα (10 ng/ml), SCF (30 ng/ml), Insulin-like Growth Factor 2 (IGF2) (10 ng/ml), Thrombopoietin (TPO) (10 ng/ml), Heparin (5 ug/ml), Iso Butyl Methyl Xanthine (IBMX) 50 μM and β-Estradiol (0.4 ng/ml).
On day 5 of differentiation a fresh set of cytokines identical to day 3 is added in 0.5 ml/well of Stemline II such that final concentrations of fresh cytokines are those stated for day 3.
On day 7 of differentiation the cells are harvested, centrifuged 3 minutes at 1200 rpm and resuspended in fresh Stemline II medium supplemented with the same set of cytokines as day 3. If the number of cells is above 500×10^3, it is advisable to split the culture as any drastic depletion or major pH increase of the medium can have major repercussion on the differentiation efficiency.
From day 7 to day 10 of differentiation the cell density should be closely monitored in order to maintain the cell number under 10^6 per ml by adding fully supplemented media and splitting into additional wells if required.
On day 9 of differentiation a half dose of day 3 cytokines is added in 0.5 ml/well of Stemline II such that final concentrations of fresh cytokines are half those stated for day 3.
On day 10 of differentiation, the cells are centrifuged 3 minutes at 1200 rpm then re-plated in erythroid liquid culture conditions. i.e. the cells are plated at a density of 100×10^3 cells/well in 3 ml/well of Stemline II supplemented with the following cytokines: Hydrocortisone 10^−6M, SCF (50 ng/ml), Flt3-Ligand (Flt3L) (16.7 ng/ml), BMP4 (6.7 ng/ml), Interleukin 3 (IL3) (6.7 ng/ml), IL11 (6.7 ng/ml), IBMX (50 μM) and Erythropoietin (EPO) 1.3 U/ml.
From day 10 to day 17 (short protocol) or 21 (extended A phase protocol), the above cytokines are renewed every 2 days, added in 0.5 ml of Stemline II, such that final concentrations of fresh cytokines are those stated for day 10. […]

globins = experiment: HPLC analysis of globin protein expression profile of differentiated hPSCs; type: cell-based, human; details: full differentiation process in presence of both GSK3β inhibitor and IBMX
Experimental: At day 24, 28 or onward the globin protein expression profile was analysed by High Pressure Liquid Chromatography to evaluate the level of switch from primitive to definitive hematopoiesis.

[2] = tested on: genes involved in erythropoiesis; experiment: qRT-PCR (Taqman) of genes involved in erythropoiesis in differentiating hPSCs; type: cell-based, human; details: for expression of globin genes and other markers of definitive hematopoiesis (HBA, HBG, HBB, Runx1, Gata2, HoxB4) and erythropoiesis genes (HOXA9, CD36, NFE2) / necessary reduction in pluripotent markers: hiPSC or hESC, Inhibitor VIII and IBMX; for key molecular markers, mRNA expression: iPSC, InhVIII+IBMX, day 0, 10, 17 and 24
Excerpt: At days 0, 10, 17 and 24 the expression of selected genes of interest by the differentiating cells was monitored by qRT-PCR (Taqman) The gene panel was selected to comprise genes known to be expressed at various stages of erythropoiesis in order to evaluate the degree of differentiation of the hPSCs.

differentiating hPSCs = experiment: morphology of differentiating cells, Rapid Romanovski staining of cytospin preparations; type: cell-based, human; details: for sturdiness of cells, proneness to lysis: SR1 at day 5, SC1 at days 14 and 16
Experimental: At day 17 onward, the erythroid stage of the cells was determined assessment of morphology after Rapid Romanovski staining of cytospin preparations.

RC9 = experiment: erythroid differentiation culture of hESC line RC9; type: cell-based, human; details: RC9 cell line
Experimental: as §1, §2
as §3, with “N-(4-Methoxybenzyl)-N′-(5-nitro-1,3-thiazol-2-yl)urea […]” for “N-(4-Methoxybenzyl)-N′-(5-nitro-1,3-thiazol-2-yl)urea”
(§6) From day 7 to day 10 of differentiation the cell density should be closely monitored in order to maintain the cell number under 10^6 per ml by adding fully supplemented media and splitting into additional wells if required. […]

hESC line H1 = experiment: erythroid differentiation culture of hESC line H1; type: cell-based, human; details: H1 ESC differentiation
Experimental: as §1, §2
as §3, with “N-(4-Methoxybenzyl)-N′-(5-nitro-1,3-thiazol-2-yl)urea […]” for “N-(4-Methoxybenzyl)-N′-(5-nitro-1,3-thiazol-2-yl)urea”
as §6

iPSC = experiment: erythroid differentiation culture of iPSC; type: cell-based, human
Experimental: as §1, §2, §3, §4, §5
On day 3 of differentiation the EBs are washed in PBS then dissociated using 1 ml/well TrypleSelect 10λ for 10 minutes at 37° C. […]
as §6

Molecule: O=C1Nc2cc(Br)ccc2/C1=C1/Nc2ccccc2/C1=N\O [BiO]
- cell amplification, combination of GSK3β inhibitor and IBMX [1]: does not have this effect

Molecule: Cc1c[nH]c(-c2cnc(NCCNc3ccc(C#N)cn3)nc2-c2ccc(Cl)cc2Cl)n1 [CHIR99021]
- cell amplification, combination of GSK3β inhibitor and IBMX [1]: synergistic
- quality and quantity of erythrocytic cells produced [1]: marked improvement
- replacement of recombinant Wnt3A by GSK3β inhibitor [1]: could not reproducibly replace Wnt3a
- effect on hESC versus hiPSC lines ([1]; compared to Inhibitor VIII): stronger effect on hESC than hiPSC lines
- potency: concentration of GSK3β inhibitor [1]: 200 nM

Molecule: CC(C)Cn1c(=O)n(C)c(=O)c2[nH]cnc21 [IBMX, 3-isobutyl-1-methylxanthine]
- HPLC globin profile (globins): almost similar to the cells of fetal origin
- cell amplification, combination of GSK3β inhibitor and IBMX [1]: synergetic effect on cell amplification
- expansion, cumulative fold amplification over time ([1]; H1 (hESC) or hiPSC, combinations of GSK3β inhibitors and IBMX): further increases expansion
- cell numbers in the culture ([1]; IBMX added to culture): can increase cell numbers
- overall amplification of differentiating erythropoietic cultures, side by side comparison [1]: inconsistency. Results consistently show a positive effect of Inhibitor VIII and IBMX. The gain provided by a prolonged
- stage of addition inducing maximum amplification ([1]; added to culture medium throughout day 3 and 17): most effective
- expression of globin genes and other markers of definitive hematopoiesis (HBA, HBG, HBB, Runx1, Gata2, HoxB4) and erythropoiesis genes (HOXA9, CD36, NFE2) [2]: increase expression
- necessary reduction in pluripotent markers [2]: do not affect
- key molecular markers, mRNA expression [2]: Increase key molecular markers
- cells morphology and maturation (differentiating hPSCs; addition of IBMX and GSK3β inhibitors, compared to the control culture conditions): did not have any negative effect
- morphological appearance of cells (differentiating hPSCs; combination of GSK3β inhibitor and IBMX): morphologically more intact and robust

Molecule: COc1ccc(CNC(=O)Nc2ncc([N+](=O)[O-])s2)cc1 [Inhibitor VIII, N-(4-methoxybenzyl)-N′-(5-nitro-1,3-thiazol-2-yl)urea]
- cell amplification, combination of GSK3β inhibitor and IBMX [1]: synergistic
- quality and quantity of erythrocytic cells produced [1]: marked improvement
- overall amplification of differentiating erythropoietic cultures, side by side comparison [1]: inconsistency. Results consistently show a positive effect of Inhibitor VIII and IBMX. The gain provided by a prolonged
- total fold amplification of erythroid differentiation culture ([1]; absence or presence of inhibitor VIII, hESC lines RC9 and H1, iPS line): increases cell numbers in multiple lines
- replacement of recombinant Wnt3A by GSK3β inhibitor [1]: could not reproducibly replace Wnt3a
- potency: concentration of GSK3β inhibitor [1]: 2000 nM
- expansion in cell number / yield of differentiated cells [1]: increases the yield of differentiated cells
- expansion in cell number / yield of differentiated cells ([1]; listed as InhVIII): increases the expansion in cell number
- expression of globin genes and other markers of definitive hematopoiesis (HBA, HBG, HBB, Runx1, Gata2, HoxB4) and erythropoiesis genes (HOXA9, CD36, NFE2) [2]: increase expression
- necessary reduction in pluripotent markers [2]: do not affect
- key molecular markers, mRNA expression [2]: Increase key molecular markers
- replacement of Activin A (RC9): wasn't observed
- replacement of Activin A (hESC line H1): can replace Activin A
- replacement of Activin A (iPSC; iPSC G cell line): wasn't observed

Molecule: Cc1cc(Nc2ncc3c(n2)N(C)C(=O)N(c2cc(NC(=O)c4cccc(C(F)(F)F)c4)ccc2C)C3)n(C)n1 [SC1]
- rate of cell amplification in the late stage of the method [1]: greater rate of cell amplification; also recorded: enhances or increases the rate of cell amplification
- sturdiness of cells, proneness to lysis (differentiating hPSCs): sturdier and less prone to lysis; also recorded: more “sturdy” and less prone lysis

Molecule: CC(C)n1cnc2c(NCCc3ccc(O)cc3)nc(-c3csc4ccccc34)nc21 [SR1]
- rate of cell amplification in the late stage of the method [1]: greater rate of cell amplification; also recorded: enhances or increases the rate of cell amplification
- sturdiness of cells, proneness to lysis (differentiating hPSCs): sturdier and less prone to lysis; also recorded: more “sturdy” and less prone to lysis

B1: Activin A: cytokine added at 5 ng/ml in the early stage of differentiation (protein, UniProt P08476 311-426, looked up)
Inhibin beta A chain: GLECDGKVNICCKKQFFVSFKDIGWNDWIIAPSGYHANYCEGECPSHIAGTSGSSLSFHSTVINHYRMRGHSPFANLKSCCVPTKLRPMSMLYYDDGQNIIKKDIQNMIVEECGCS
- effect of an increased dose on differentiation ([1]; data not shown): doesn't have any beneficial effect
- differentiation efficiency in the absence of Activin A (RC9): markedly hinders the differentiation efficiency
- requirement for efficient differentiation (iPSC; iPSC): required for efficient differentiation
- differentiation efficiency in the absence of Activin A (iPSC; iPSC G cell line): markedly hinders the differentiation efficiency
